Measured values as given in patent publication US8969544B2, “Combined use of PRAME inhibitors and HDAC inhibitors” (priority 2004, dated 2015).

How the values were obtained:
RAS^V12-MEFs = assay: growth of RAS^V12-MEFs in the presence of HDAC inhibitor; type: cell-based, mouse
Description: In order to address the molecular basis for the selective growth-inhibitory activity of HDACi on cancer cells, we performed a functional genetic screen to identify genes that confer resistance to a small-molecule HDACi, named PXD101 (Plumb et al, 2003). Oncogenic RAS^V12-transformed mouse embryonic fibroblasts (RAS^V12-MEFs) were infected with a high complexity retroviral cDNA expression library derived from human K562 erythroleukemia cells and exposed to 1 μM PXD101 for three to […]. HDACi-resistant colonies appeared at low frequency only after infection with cDNA expression library. Integrated proviruses were mobilized from PXD101-resistant colonies by Moloney virus super-infection as described (Jacobs et al, 2000). After second round selection, cDNA inserts were recovered by PCR and identified by DNA sequence analysis. Using this approach, we identified full-length cDNAs encoding the human melanoma tumour antigen PRAME (PReferentially expressed Antigen in MElanoma (Ikeda et al, 1997) and Retinoic Acid Receptor alpha (RARα) as cDNAs that allow continuous proliferation in the presence of 1 μM PXD101. PRAME also rescues these cells from growth arrest by a related HDACi, Trichostatin A at a concentration of 0.1 μM.
The observed effect of PRAME on RAR signalling could result from a physical interaction of PRAME with RAR or from more indirect effects. […]

[1] = system: histone H3 acetylation, p21; assay: immunoblot for acetyl-H3 and p21 in Ras^V12 MEFs treated with HDACi; type: cell-based, mouse; conditions: 1 μM PXD101 for 16 hrs; not prevented by PRAME or RARα expression
Description: Ras^V12 MEFs were also transduced with PRAME or RARα retrovirus and treated with 1 μM PXD101 for 16 hrs. Extracts were immunoblotted for acetyl-H3, p21, PRAME, RARα and CDK4 (control). […] Cells were lysed in Ripa buffer (50 mM Tris pH 8.0, 150 mM NaCl, 1% NP-40, 0.5% deoxycholic acid, and 0.1% SDS) supplemented with protease inhibitors (Complete; Roche) and […] PMSF and proteins were separated on 10-14% SDS-PAGE gels. Proteins were transferred to polyvinylidine difluoride membranes (Immobilon P, Millipore) and Western blots were probed with the indicated antibodies. For TAP (co-)immunoprecipitations cells were lysed in ELB buffer (0.25 M NaCl, 0.1% NP-40, 50 mM HEPES pH 7.3) supplemented with protease inhibitors and PMSF. Lysates were incubated with IgG-coated sepharose beads (Amersham) to immunoprecipitate TAP and TAP-PRAME (Rigaut et al 1999), indicated as anti-TAP, or with protein A beads and normal mouse serum (mock IP) for 2 hrs, washed, and separated on SDS-PAGE gels.

RARβ = assay: immunoblot for endogenous RARβ in F9 cells treated with RA; type: cell-based, mouse; conditions: 10^−7 M RA; parental and mock-transfected F9 cells, not PRAME-transfected
Description: (§1) Cells were lysed in Ripa buffer (50 mM Tris pH 8.0, 150 mM NaCl, 1% NP-40, 0.5% deoxycholic acid, and 0.1% SDS) supplemented with protease inhibitors (Complete; Roche) and […] PMSF and proteins were separated on 10-14% SDS-PAGE gels. Proteins were transferred to polyvinylidine difluoride membranes (Immobilon P, Millipore) and Western blots were probed with the indicated antibodies. For TAP (co-)immunoprecipitations cells were lysed in ELB buffer (0.25 M NaCl, 0.1% NP-40, 50 mM HEPES pH 7.3) supplemented with protease inhibitors and PMSF. Lysates were incubated with IgG-coated sepharose beads (Amersham) to immunoprecipitate TAP and TAP-PRAME (Rigaut et al 1999), indicated as anti-TAP, or with protein A beads and normal mouse serum (mock IP) for 2 hrs, washed, and separated on SDS-PAGE gels.

A375-PRAMEKD cells = assay: human melanoma xenograft model, A375-PRAMEKD tumours; type: in vivo, mouse; conditions: 5 mg/kg RA p.o. daily, nude mice, PRAMEKD melanomas, vs vehicle
Description: To examine the role of PRAME in RA-responsiveness in vivo, we used a human melanoma xenograft model. Nude mice were subcutaneously transplanted with parental A375 into one flank and A375-PRAMEKD cells in the opposite flank and the mice were treated p.o. daily with either 5 mg/kg RA or vehicle only, while tumor volumes were measured weekly.
Female 5-6 week old athymic BALB-C nude mice (nu/nu) were s.c. implanted with 1×10^6 cells bilaterally into the axial regions. Each mouse received A375-PRAMEKD cells in its right flank and control A375 cells in its left flank. Mice were randomized into treatment groups and treated with 5 mg/kg RA or vehicle (ethanol in sunflower oil) p.o. with a 20-gauge intragastric feeding tube daily. Tumor diameter was measured with calipers weekly. The pRS vector which was used to generate A375-PRAMEKD cells is a self-inactivating retroviral vector, to prevent re-activation and spreading of virus (Brummelkamp et al., 2002a; Brummelkamp et al., 2002b). The experiment was performed twice, with n=20 and n=10 mice and results were similar in both experiments.

[2] = system: F9 mouse embryo carcinoma cells; assay: RA-induced apoptosis in F9 cells (cleaved caspase 3); type: cell-based; conditions: 10^−7 M RA; vector controls, not PRAME transfectants
Description: RA induces proliferation arrest, differentiation and apoptosis in many cell types. We therefore asked if PRAME expression affected the RA-induced differentiation of F9 mouse embryo carcinoma cells towards parietal endoderm (Strickland and Mandavi, 1978). F9 cells were stably transfected with PRAME or control vector and individual colonies were selected. In the to absence of RA, the morphology of all transfected cells was the some as that of parental F9 cells. However, F9 cells stably transfected with PRAME […] and treated with 10^−7 M RA were resistant to RA-induced morphological differentiation and growth arrest. Apart from differentiating, a fraction of F9 cells treated with RA dies by apoptosis (Atencia et al, 1994). […] We conclude that PRAME expression confers resistance to RA-induced proliferation arrest, differentiation and apoptosis.
(§2) F9 cells were stably transfected with PRAME or empty vector and resistant cells were differentiated in 10^−7 M RA for 5 days. A375 cells were stably transfected with pRS-PRAME or empty vector and stable clones were cultured according to the 3T3 protocol. Medium with RA was refreshed every 24-48 hrs.

RARβ and p21 = assay: immunoblot of RA target genes RARβ and p21 in A375-PRAME^KD cells; type: cell-based, human; conditions: 5 μM RA
Description: as §1

A375-PRAME^KD cells = assay: proliferation of A375-PRAME^KD cells, 3T3 protocol; type: cell-based, human; conditions: 15 days, medium with 5 μM RA
Description: (§3) To assess the effect of PRAME knockdown on cell proliferation, we generated stable derivatives of A375 melanoma having shRNA-mediated knockdown of PRAME expression (A375-PRAME^KD). These A375-PRAME^KD cells were cultured for 15 days according to the 3T3 protocol.
as §2

p21 promoter = assay: p21 promoter-luciferase reporter in B16 melanoma cells; type: cell-based, mouse; conditions: B16 melanoma cells treated with RA; suppressed by PRAME
Description: as §3
Transfections were carried out using the Lipofectamine reagent (Invitrogen), except for Ras^V12 MEFs and Phoenix cells, which were transfected using calcium phosphate precipitation. RA-based reporter assays were done in DMEM with charcoal-stripped FCS (Hyclone). In reporter assays 0.5 μg of reporter-luciferase, 1 ng CMV-renilla, and 3 μg of the indicated DNA were transfected. RA, PXD101, or TSA was added 24 hrs after transfection and assays were performed 48 hrs after transfection. In knock-down experiments, RA or PXD101 was added 72 hrs after transfection and assays were performed 96 hrs after transfection. Luciferase activities shown represent ratios between luciferase and renilla internal control values.

Compound: O=C(/C=C/c1cccc(S(=O)(=O)Nc2ccccc2)c1)NO [PXD101, N-hydroxy-3-(3-phenylsulfamoyl-phenyl)-acrylamide]
- cell growth (RAS^V12-MEFs; 1 μM PXD101): growth arrest
- histone H3 acetylation [1]: increase
- p21 expression [1]: induction

Compound: CC1=C(/C=C/C(C)=C/C=C/C(C)=C/C(=O)O)C(C)(C)CCC1 [RA, All-trans-retinoic acid]
- endogenous RARβ protein expression (RARβ): induced
- tumor growth (A375-PRAMEKD cells): severely retarded
- cleaved caspase 3 (apoptosis) [2]: apparent in vector controls
- induction of RA target genes RARβ and p21 (RARβ and p21): enhanced
- proliferation rates (A375-PRAME^KD cells): significantly decreased proliferation rates, especially when cultured in the presence of RA
- p21 promoter-luciferase reporter activity (p21 promoter): activated

Compound: CC(/C=C/C(=O)NO)=C\[C@@H](C)C(=O)c1ccc(N(C)C)cc1 [Trichostatin A]
- cell growth (RAS^V12-MEFs; Trichostatin A 0.1 μM): growth arrest
